Molecules are shown by their SMILES.

Usually EC50 stands for the midpoint of the concentration-response curve.

ΔF508-CFTR, sequence (P13569 other isoform, or with tags, fused parts or gaps del F508-F508): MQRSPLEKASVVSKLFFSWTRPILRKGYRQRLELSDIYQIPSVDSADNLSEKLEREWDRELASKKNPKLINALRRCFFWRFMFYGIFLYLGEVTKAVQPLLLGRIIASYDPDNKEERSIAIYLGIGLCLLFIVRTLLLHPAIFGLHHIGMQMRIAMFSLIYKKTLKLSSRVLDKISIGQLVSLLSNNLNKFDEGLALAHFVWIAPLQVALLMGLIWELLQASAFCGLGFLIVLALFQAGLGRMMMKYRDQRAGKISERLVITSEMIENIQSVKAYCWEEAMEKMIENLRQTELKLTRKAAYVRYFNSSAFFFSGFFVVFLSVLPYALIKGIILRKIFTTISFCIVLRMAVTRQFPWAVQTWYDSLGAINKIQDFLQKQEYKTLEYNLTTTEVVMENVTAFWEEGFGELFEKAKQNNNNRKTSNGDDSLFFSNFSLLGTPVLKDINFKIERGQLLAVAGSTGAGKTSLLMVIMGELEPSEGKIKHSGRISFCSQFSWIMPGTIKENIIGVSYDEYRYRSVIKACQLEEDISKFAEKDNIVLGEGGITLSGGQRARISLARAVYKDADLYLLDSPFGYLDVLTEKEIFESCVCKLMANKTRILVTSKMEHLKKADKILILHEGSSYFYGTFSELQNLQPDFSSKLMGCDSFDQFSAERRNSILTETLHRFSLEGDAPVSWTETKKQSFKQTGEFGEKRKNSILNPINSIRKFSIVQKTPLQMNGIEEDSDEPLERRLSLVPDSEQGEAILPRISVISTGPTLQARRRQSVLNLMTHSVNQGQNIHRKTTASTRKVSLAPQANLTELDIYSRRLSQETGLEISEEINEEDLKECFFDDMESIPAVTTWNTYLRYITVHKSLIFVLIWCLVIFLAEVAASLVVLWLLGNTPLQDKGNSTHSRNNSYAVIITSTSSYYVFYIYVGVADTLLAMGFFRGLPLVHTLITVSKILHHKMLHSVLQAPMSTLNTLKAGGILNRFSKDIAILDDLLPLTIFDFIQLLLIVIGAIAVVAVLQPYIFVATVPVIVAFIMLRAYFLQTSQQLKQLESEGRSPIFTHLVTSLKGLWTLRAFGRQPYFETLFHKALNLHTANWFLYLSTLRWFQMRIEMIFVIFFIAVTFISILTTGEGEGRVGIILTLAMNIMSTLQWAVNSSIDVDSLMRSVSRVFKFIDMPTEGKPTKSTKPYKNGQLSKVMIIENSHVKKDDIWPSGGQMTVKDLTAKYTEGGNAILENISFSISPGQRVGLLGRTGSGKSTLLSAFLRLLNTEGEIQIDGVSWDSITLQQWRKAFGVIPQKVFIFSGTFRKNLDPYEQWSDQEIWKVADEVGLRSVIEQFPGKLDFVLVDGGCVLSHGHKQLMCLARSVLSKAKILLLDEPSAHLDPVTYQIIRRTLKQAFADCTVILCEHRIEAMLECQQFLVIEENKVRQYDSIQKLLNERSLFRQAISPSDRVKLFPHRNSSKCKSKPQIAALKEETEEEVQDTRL

The target in the assay is ΔF508-CFTR (Homo sapiens (Human), UniProt P13569, DEL508-508). The assay is described as follows: CFTR potentiator assays (membrane potential, IonWorks Quattro, Ussing chamber ion transport). Format: cell-based. To be noted: CFTR EC50 in 'the data measurements described above'; which of the potentiator assays is not stated. The text has this:
CFTR activity can be quantified by measuring the transmembrane potential. The means for measuring the transmembrane potential in a biological system can employ a number of methods including electrophysiological and optical fluorescence-based membrane potential assays.
The optical membrane potential assay utilises a negatively charged potentiometric dye, such as the FLIPR membrane potential dye (FMP) (see Baxter D F, Kirk M, Garcia A F, Raimondi A, Holmqvist M H, Flint K K, Bojanic D, Distefano P S, Curtis R, Xie Y. ‘A novel membrane potential-sensitive fluorescent dye improves cell-based assays for ion channels.’ J Biomol Screen. 2002 February; 7(1):79-85) which when extracellular is bound to a quenching agent.
Upon cellular depolarisation the negatively charged dye redistributes to the intracellular compartment, unbinding from the membrane impermeant quench agent, yielding an increase in fluorescence. This change in fluorescence is proportional to the change in transmembrane potential which can result from the activity of CFTR. The changes in fluorescence can be monitored in real time by an appropriately equipped fluorescence detector such as the FLIPR (fluorometric imaging plate reader) in 96 or 384-well microtitre plates.
Chinese hamster ovary (CHO) cells stably expressing the AF508-CFTR channel were used for membrane potential experiments. Cells were maintained at 37° C. in 5% v/v CO2 at 100% humidity in Modified Eagles medium (MEM) supplemented with 8% v/v foetal calf serum, 100 μg/ml methotrexate and 100 U/ml penicillin/streptomycin. Cells were grown in 225 cm^2 tissue culture flasks. For membrane potential assays cells were seeded into 96 well plates at 40,000 cells per well, allowed to adhere and then maintained at 26° C. for 48 h to facilitate channel insertion.
The membrane potential screening assay utilised a low chloride ion containing extracellular solution (˜5 mM) combined with a double addition protocol. The first addition was of buffer with or without test compound followed 5 minutes later by an addition of forskolin (1-20 μM)—this protocol favours maximum chloride efflux in response to ΔF508-CFTR activation. The ΔF508-CFTR mediated chloride ion efflux leads to a membrane depolarisation which is optically monitored by the FMP dye.
Low chloride extracellular (mM): 120 Na-gluconate, 1.2 CaCl2), 3.3 KH2PO4, 0.8 K2HPO4, 1.2 MgCl2, 10.0 D-glucose, 20.0 HEPES, pH 7.4 with NaOH FMP dye: made up as per manufacturers' instructions in low chloride extracellular solution detailed above, at 10× final concentration, and stored as 1 mL aliquots at −20° C.
CFTR activity can also be quantified electrophysiologically using the whole-cell configuration of the patch clamp technique (Hamill et al Pflugers Archive 1981). This assay directly measures the currents associated with chloride flow through CFTR channels whilst either maintaining or adjusting the transmembrane voltage. This assay can use either single glass micropipettes or parallel planar arrays to measure CFTR activity from native or recombinant cell systems. Currents measured using parallel planar arrays can be quantified using an appropriately equipped instrument such as the IonWorks Quattro (Molecular Devices) or the Qpatch (Sophion). The Quattro system can measure CFTR currents from either a single cell per recording well (HT configuration) or alternatively from a population of 64 cells per well (Population Patch Clamp PPC) (Finkel A, Wittel A, Yang N, Handran S, Hughes J, Costantin J. ‘Population patch clamp improves data consistency and success rates in the measurement of ionic currents.’ J Biomol Screen. 2006 August; 11(5):488-96).
Chinese hamster ovary (CHO) cells stably expressing the ΔF508-CFTR channel were used for IonWorks Quattro experiments. […]
(Patch clamp records ionic current or voltage across a cell membrane.)
For the molecule `CC(O)(CNC(=O)c1nc(-c2ccc(Cl)cc2Cl)c(C(F)(F)F)cc1N)C(F)(F)F` (single isomer, unassigned) [Example 10, 3-Amino-6-(2,4-dichloro-phenyl)-5-trifluoromethyl-pyridine-2-carboxylic acid (3,3,3-trifluoro-2-hydroxy-2-methyl-propyl)-amide], the EC50 is 112 nM.
The result for `COc1nc(C(=O)NCC(O)C(F)(F)F)c(N)cc1C(F)(F)F` (centres unmarked) [Example 12, 3-Amino-6-methoxy-5-trifluoromethyl-pyridine-2-carboxylic acid (3,3,3-trifluoro-2-hydroxy-propyl)-amide] reads 35 nM; that for `COc1nc(C(=O)NC[C@@](C)(O)C(F)(F)F)c(N)cc1C(F)(F)F` (single isomer, unassigned) [Example 6], 426 nM; that for `C[C@@](O)(CNC(=O)c1nc(C(F)(F)F)c(C(F)(F)F)cc1N)C(F)(F)F` [Example 17, 3-Amino-5,6-bis-trifluoromethyl-pyridine-2-carboxylic acid ((R)-3,3,3-trifluoro-2-hydroxy-2-methyl-propyl)-amide], 10 nM.
For `CC(O)(CNC(=O)c1nc(-c2ccc(Cl)cc2Cl)c(C(F)(F)F)cc1N)C(F)(F)F` (single isomer, unassigned) [Example 9, 3-Amino-6-(2,4-dichloro-phenyl)-5-trifluoromethyl-pyridine-2-carboxylic acid (3,3,3-trifluoro-2-hydroxy-2-methyl-propyl)-amide], the EC50 stood at 90 nM.
With `C[C@@](O)(CNC(=O)c1nc(-c2ccc(F)cc2)c(C(F)(F)F)cc1N)C(F)(F)F` [Example 8, 3-Amino-6-(4-fluoro-phenyl)-5-trifluoromethyl-pyridine-2-carboxylic acid ((R)-3,3,3-trifluoro-2-hydroxy-2-methyl-propyl)-amide] the figure was 60 nM; with `C[C@](O)(CNC(=O)c1nc(Br)c(C(F)(F)F)cc1N)C(F)(F)F` [Example 3, 3-Amino-6-bromo-5-trifluoromethyl-pyridine-2-carboxylic acid ((S)-3,3,3-trifluoro-2-hydroxy-2-methyl-propyl)-amide], 55 nM.
The result for `CC(C)(O)CNC(=O)c1nc(-c2ccc(F)cc2)c(C(F)(F)F)cc1N` [Example 11, 3-Amino-6-(4-fluoro-phenyl)-5-trifluoromethyl-pyridine-2-carboxylic acid (2-hydroxy-2-methyl-propyl)-amide] reads 37 nM.
Regarding `C[C@](O)(CNC(=O)c1nc(C(F)(F)F)c(C(F)(F)F)cc1N)C(F)(F)F` [Example 16, 3-Amino-5,6-bis-trifluoromethyl-pyridine-2-carboxylic acid ((S)-3,3,3-trifluoro-2-hydroxy-2-methyl-propyl)-amide], the EC50 was 8 nM.
For the molecule `C[C@](O)(CNC(=O)c1nc(-c2ccc(F)cc2)c(C(F)(F)F)cc1N)C(F)(F)F` [Example 7, 3-Amino-6-(4-fluoro-phenyl)-5-trifluoromethyl-pyridine-2-carboxylic acid ((S)-3,3,3-trifluoro-2-hydroxy-2-methyl-propyl)-amide], the EC50 amounted to 40 nM.
The result for `Cc1ccc(-c2nc(C(=O)NCC(C)(O)C(F)(F)F)c(N)cc2C(F)(F)F)cn1` (single isomer, unassigned) [Example 15, 5-Amino-6′-methyl-3-trifluoromethyl-[2,3′]bipyridinyl-6-carboxylic acid (3,3,3-trifluoro-2-hydroxy-2-methyl-propyl)-amide] reads 51 nM; that for `COc1nc(C(=O)NCC(C)(O)C(F)(F)F)c(N)cc1C(F)(F)F` (racemic) [Example 4, 3-Amino-6-methoxy-5-trifluoromethyl-pyridine-2-carboxylic acid (3,3,3-trifluoro-2-hydroxy-2-methyl-propyl)-amide], 76 nM; that for `C[C@@](O)(CNC(=O)c1nc(Br)c(C(F)(F)F)cc1N)C(F)(F)F` [Example 2, 3-Amino-6-bromo-5-trifluoromethyl-pyridine-2-carboxylic acid ((R)-3,3,3-trifluoro-2-hydroxy-2-methyl-propyl)-amide], 15 nM.
For the molecule `Cc1ccc(-c2nc(C(=O)NCC(O)(C(F)(F)F)C(F)(F)F)c(N)cc2C(F)(F)F)cn1` [Example 14, 5-Amino-6′-methyl-3-trifluoromethyl-[2,3′]bipyridinyl-6-carboxylic acid (3,3,3-trifluoro-2-hydroxy-2-trifluoromethyl-propyl)-amide], the EC50 is 115 nM.
